Test results from US20060122150A1, “Pharmaceutical composition and method for treating a joint-capsule arthropathy” (priority 2004, published 2006).

Key:
5LO-1 = biological target: T1, 5LO-1 (Homo sapiens, UniProt P09917); assay: In vitro efficacy: inhibitor of 5LO-1; type: biochemical
T1 sequence (P09917 1-674): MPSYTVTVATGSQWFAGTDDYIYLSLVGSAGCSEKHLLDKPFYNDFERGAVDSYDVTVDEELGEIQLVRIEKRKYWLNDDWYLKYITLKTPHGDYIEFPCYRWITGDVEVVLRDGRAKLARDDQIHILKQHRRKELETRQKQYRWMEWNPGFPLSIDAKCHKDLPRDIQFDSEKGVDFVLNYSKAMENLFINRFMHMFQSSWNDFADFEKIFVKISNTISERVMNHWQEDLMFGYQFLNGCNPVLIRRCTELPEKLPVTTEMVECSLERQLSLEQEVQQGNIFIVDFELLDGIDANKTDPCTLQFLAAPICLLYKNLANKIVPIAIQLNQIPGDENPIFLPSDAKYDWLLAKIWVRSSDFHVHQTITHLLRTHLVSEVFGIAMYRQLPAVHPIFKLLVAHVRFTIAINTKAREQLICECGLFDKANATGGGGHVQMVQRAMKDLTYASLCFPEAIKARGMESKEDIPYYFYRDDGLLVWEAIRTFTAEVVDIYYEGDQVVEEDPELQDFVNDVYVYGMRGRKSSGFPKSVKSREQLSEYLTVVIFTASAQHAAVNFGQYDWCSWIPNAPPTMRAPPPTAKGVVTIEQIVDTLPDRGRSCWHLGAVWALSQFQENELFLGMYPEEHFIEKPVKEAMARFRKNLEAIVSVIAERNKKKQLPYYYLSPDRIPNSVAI

COX-1 = COX-1 (Homo sapiens, UniProt P23219); assay: In vitro efficacy: inhibitor of COX-1; type: biochemical
COX-1, sequence (P23219 24-599): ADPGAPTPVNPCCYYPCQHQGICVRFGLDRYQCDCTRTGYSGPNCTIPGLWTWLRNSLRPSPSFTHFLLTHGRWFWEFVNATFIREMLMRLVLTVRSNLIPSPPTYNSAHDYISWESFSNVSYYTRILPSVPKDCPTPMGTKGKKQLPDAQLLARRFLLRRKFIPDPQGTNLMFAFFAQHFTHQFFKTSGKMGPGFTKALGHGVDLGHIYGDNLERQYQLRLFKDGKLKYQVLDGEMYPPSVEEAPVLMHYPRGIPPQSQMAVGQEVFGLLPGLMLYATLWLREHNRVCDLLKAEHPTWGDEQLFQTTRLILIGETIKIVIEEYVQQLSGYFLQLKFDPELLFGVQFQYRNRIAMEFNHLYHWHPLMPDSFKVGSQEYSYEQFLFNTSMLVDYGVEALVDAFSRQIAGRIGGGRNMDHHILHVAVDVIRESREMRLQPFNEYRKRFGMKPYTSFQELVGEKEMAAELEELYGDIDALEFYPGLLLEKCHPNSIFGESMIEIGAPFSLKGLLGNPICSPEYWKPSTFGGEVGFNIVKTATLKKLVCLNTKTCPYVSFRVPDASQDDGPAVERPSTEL

COX-2 = biological target: T2, COX-2 (Homo sapiens, UniProt P35354); assay: In vitro efficacy: inhibitor of COX-2; type: biochemical
T2 sequence (P35354 18-604): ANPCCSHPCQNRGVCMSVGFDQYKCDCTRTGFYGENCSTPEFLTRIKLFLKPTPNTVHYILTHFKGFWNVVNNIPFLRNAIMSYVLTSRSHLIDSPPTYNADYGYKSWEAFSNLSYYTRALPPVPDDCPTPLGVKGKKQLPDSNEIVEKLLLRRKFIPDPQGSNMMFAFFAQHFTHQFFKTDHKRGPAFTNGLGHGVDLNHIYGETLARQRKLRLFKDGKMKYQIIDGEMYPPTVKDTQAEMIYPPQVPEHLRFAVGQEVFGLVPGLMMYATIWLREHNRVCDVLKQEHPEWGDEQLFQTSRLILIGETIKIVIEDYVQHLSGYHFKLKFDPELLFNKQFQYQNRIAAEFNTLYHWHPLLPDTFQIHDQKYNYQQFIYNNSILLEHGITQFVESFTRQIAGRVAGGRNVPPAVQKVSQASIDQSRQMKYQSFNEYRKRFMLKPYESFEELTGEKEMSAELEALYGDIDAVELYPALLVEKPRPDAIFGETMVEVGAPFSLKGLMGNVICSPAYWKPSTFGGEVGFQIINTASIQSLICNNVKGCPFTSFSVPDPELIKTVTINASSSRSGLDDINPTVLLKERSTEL

[1] = tested on: Rabbit Anterior Cruciate Ligament Transection (ACLT) Model; assay: Rabbit ACLT osteoarthritis model, NSAID dispersed in HA (Example 4); type: in vivo, New Zealand White Rabbits; conditions: intra-articular 160 μL once per week for 5 weeks
Source text: Osteoarthritis is a degenerative disease that degrades cartilage, resulting in pain, restriction of motion and deformity. In the ACLT model, the appearance of OA can be seen at 6 weeks and is characterized by erosion of cartilage on the trochlear grove and mild to serious cartilage erosion on the femoral condyle. The last symptoms to arise are on the tibial plateau. At 6 weeks, there is some damage visible on the tibial plateau, but the damage may not be great given the length of the study. […] While osteophyte formation is a factor in the analysis, several parameters are observed, wherein each parameter alone is not sufficient to draw a conclusion. Therefore, the composite score provides a more meaningful result for a particular agent tested.
The ACLT model was used to evaluate the ability of a NSAID agent in a pharmaceutical formulation administered directly into the intra-articular capsule of the knee to reduce the incidence of osteoarthritic changes. The NSAIDs formulations prepared in Example 2 were used and injected 6 weeks after animal preparation. A commercially available form of purified HA was used as the vehicle control. The animals (n=7 per group) were dosed (160 μL per injection) once per week for 5 weeks.
Female New Zealand White Rabbits (n=84, Milibrook Breeding Labs, SPF) used in the study underwent ACLT on the right knee.
One week after the last injection (total 12 weeks from time of ACLT), animals were euthanized and gross observations were made on the knee joints. Histological sectioning and staining were performed on the condyles.
The joints were analyzed for disease state in the trochlear groove, the femoral condyles and the tibial plateau. Pathological assessments were performed on the sectioned tissue. Condylar structure, cellularity, presence of GAG (glycosaminoglycans) and presence of cartilage were evaluated.
On the anterior surface of the femur (trochlear groove), the number of osteophytes, the size (diameter) of osteophytes, the presence of trochlear groove thickening and the erosion of cartilage were evaluated grossly.
On the femoral condyles, the erosion of cartilage (% surface area) (both medial and lateral condyle), the erosion of cartilage (depth) and the presence of clefts were evaluated grossly.
On the tibial plateau, observations on the thickening, presence of clefts and erosion were made.
Each parameter was given a score. The combination of all parameters gave a Total Score. A higher score indicates more damage to the joint. The data for un-operated joints (no surgery) has been included as a baseline for a normal joint.

LTB4 = assay: In vitro efficacy: inhibitor of LTB4; type: biochemical
TXB2 = assay: In vitro efficacy: inhibitor of TXB2; type: biochemical

SMILES	IC50 (5LO-1) [nM]	IC50 (COX-1) [nM]	IC50 (COX-2) [nM]	All Cartilage Effects composite score ([1]; high dose)	Total Score (composite of all scoring criteria) ([1]; high dose)	Medial Femoral Condyle (% Surface Area Erosion) score ([1]; low dose)	All Cartilage Effects composite score ([1]; mid dose)	All Tibial Plateau Effects composite score ([1]; mid dose)	Lateral Femoral Condyle (% Surface Area Erosion) score ([1]; mid dose)	Medial Femoral Condyle (% Surface Area Erosion) score ([1]; mid dose)	Total Score (composite of all scoring criteria) ([1]; mid dose)	All Trochlear Groove Effects composite score ([1]; high dose)	Trochlear Groove (Erosion of Cartilage) grade ([1]; high dose)	also measured
CC(C(=O)O)c1ccc(C(=O)c2cccs2)cc1 (stereo not drawn) [Suprofen]	3000	60	1000	lower mean scores than the No Injection treated group	numerically less average scores than the No Injection treated group	the same average score as No Injection but scored better than Vehicle	lower mean scores than the No Injection treated group	lower average scores than the No Injection treated group	average numerical scores less than Vehicle and No Injection treated groups	average numerical scores less than Vehicle and No Injection treated groups	numerically less average scores than the No Injection treated group	–	–	All Trochlear Groove Effects composite score ([1]; all dose groups): lower mean scores than Vehicle and No Injection treated groups; Trochlear Groove (Erosion of Cartilage) grade ([1]; all dose levels): numerically lower than the Vehicle control and No Injection treated groups; Lateral Femoral Condyle (% Surface Area Erosion) score ([1]; high dose): average numerical scores less than Vehicle and No Injection treated groups
COc1ccc(-n2nc(CCC(=O)N(C)O)cc2-c2ccc(Cl)cc2)cc1 [Tepoxalin]	170	970	2000	lower mean scores than the No Injection treated group	numerically less average scores than the No Injection treated group	–	lower mean scores than the No Injection treated group	–	average numerical scores less than Vehicle and No Injection treated groups	–	–	lower mean scores than Vehicle and No Injection treated groups	numerically lower than the Vehicle control and No Injection treated groups	IC50 (LTB4): 40 nM; IC50 (TXB2): 2 nM; Medial Femoral Condyle (% Surface Area Erosion) score ([1]; all dose groups): average numerical scores less than Vehicle and No Injection treated groups; Total Score (composite of all scoring criteria) ([1]; low dose): numerically less average scores than the No Injection treated group
Cc1ccc(C(=O)c2ccc(CC(=O)O)n2C)cc1 [Tolmetin]	30	3000	50	–	–	average numerical scores less than Vehicle and No Injection treated groups	lower mean scores than the No Injection treated group	lower average scores than the No Injection treated group	average numerical scores less than Vehicle and No Injection treated groups	average numerical scores less than Vehicle and No Injection treated groups	numerically less average scores than the No Injection treated group	lower mean scores than Vehicle and No Injection treated groups	numerically lower than the Vehicle control and No Injection treated groups	Femoral Condyle (Depth of Erosion) score ([1]; high dose): the same average score as the No Injection group
